Here are results for two compounds from patent US6150366A, “Ziprasidone formulations” (Pfizer Inc., priority 1999, dated 2000).

The conditions of data set [1]: cited from earlier work.
For data set [2] the following is noted: cited from earlier work. The source holds these as a separate data set.
The next data set can be described thus: Solubility. Format: physicochemical.
Data set [3] can be described thus: Dissolution testing in USP-2 apparatus. It counts as physicochemical. The following applies: aqueous media, at or below 85 μm. As for the experimental part:
Usually the test result is established as an average for a pre-determined number of dosages (e.g., capsules, tablets, suspensions, or other dosage form), usually six. The dissolution media is typically maintained at 37° C. during the test. […] The amount of dissolved ziprasidone can be determined conventionally by HPLC, as hereinafter described.
A dosage form can be tested to assess its dissolution profile by dissolution testing it in a USP-2 apparatus. As previously described, the apparatus is implemented to contain 900 ml of 0.05 M NaH2 PO4 buffer, pH 7.5, containing 2% (w/w) sodium dodecyl sulfate. 1% pancreatin may be added if the dosage form being tested is a capsule, as previously noted. The pH can be adjusted as approprate using, for example, 5N NaOH or concentrated phosphoric acid. The USP-2 apparatus is equipped with paddles stirring at 75 rpm. […]
The amount of dissolved ziprasidone can be determined conventionally by HPLC. […] Quantification can be effected facilely by comparison of HPLC peak height (or area) with the peak height (or area) taken from a standard plot of concentration vs. peak height (or area) for standards of known concentration. As is conventional, the ziprasidone standard concentrations are selected to fall within a linear range of concentration vs absorbance for the UV detector employed.

Molecules are shown by their SMILES. Structures can show the parent of a compound that is named as a salt.

With `O=C1Cc2cc(CCN3CCN(c4nsc5ccccc45)CC3)c(Cl)cc2N1` [ziprasidone hydrochloride], the aqueous solubility entry in data set [1] is “relatively poor aqueous solubility”. In addition, the permeability result in data set [2] is listed as “high permeability”.

Turning to `O=C1Cc2cc(CCN3CCN(c4nsc5ccccc45)CC3)c(Cl)cc2N1` [ziprasidone], the “solubility compared with the acid addition salt” value in “Solubility” (near-neutral pH) is recorded as “much less soluble”. Also, in “Solubility” (slurry in THF/water process), the solubility result is listed as “low solubility”. Further, the “dependence of dissolution rate on particle size” value in data set [3] is given as “does not vary substantially with particle size”.
